These results are taken from patent US8173628B2, “Steroidal antiestrogens and antiandrogens and uses thereof” (Northeastern University, priority 2000, dated 2012).

In one assay the test system is MCF-7 cells. Put plainly: proliferation assay of MCF-7 cells. It counts as cell-based. To be noted: for effect on the proliferative response to estradiol: ligand added in the presence of 1 nM estradiol; for ability of the ligand to stimulate the proliferation of MCF-7 cells: ligand alone. An excerpt: Trifluoromethyl group was introduced onto phenylvinyl estradiol either at the ortho, meta, or para positions. These compounds were examined for their ability to stimulate or inhibit estrogen responses in two assay systems. […] The meta- and para-isomers gave substantially different profiles. […] Therefore, the position of the trifluoromethyl group exerted a significant effect on the efficacy of the ligand.

Assay [1] concerns immature female rat. Put plainly: immature female rat uterotrophic growth assay, estrogenic assay. It counts as in vivo. The method, then:
(§1) These trifluoromethyl substituted compounds were also studied with an immature female rat uterotrophic growth assay; the results are shown in FIGS. 12, 13, and 14. […] Therefore, the agonist responses observed in the in vitro cell proliferation assay were carried over to the intact animal as well. The antiestrogen assay evaluated the ability of the isomers to block the uterotrophic effect induced by 1 nM estradiol. […] Therefore, in both estrogen responsive cells and tissues these new ligands are producing differential responses in affinity and efficacy related to the site of trifluoromethyl substitution on the phenyl ring.

Assay [2] has as its system immature female rat. The assay can be described thus: immature female rat uterotrophic growth assay, antiestrogen assay. It counts as in vivo. To be noted: 1 nM estradiol. The method, then: as §1

SMILES strings stand for the structures.

`CC12CCC3c4ccc(O)cc4CCC3C1CCC2(O)C=Cc1ccccc1C(F)(F)F` (stereo not drawn) [Compound 4a, 17α-20E-21-(2-Trifluoromethylphenyl)-19-norpregna-1,3,5(10),20-tetraene-3,17β-diol]: in the assay with MCF-7 cells, the “effect on the proliferative response to estradiol” value (“effect … to estradiol” for short) is given as “neither an enhancement nor a diminution of the proliferative response” and the “ability of the ligand to stimulate the proliferation of MCF-7 cells” value (from here on “ability of the ligand”) was “full agonist response comparable to that of estradiol”. Moreover, the “estrogenic effect (uterotrophic growth)” value in the assay with immature female rat [1] (3 nM level) is reported as “effect comparable to estradiol”. Besides, in the assay on immature female rat [1] (10 and 100 nM), the “estrogenic effect (uterotrophic growth)” value was “substantial estrogenic effects”. The “ability to block the uterotrophic effect induced by estradiol” value (from here on “ability … by estradiol”) in the assay with immature female rat [2] (isomer at 10 and 100 nM) was “enhancement of the estrogenic response”.
On to `CC12CCC3c4ccc(O)cc4CCC3C1CCC2(O)C=Cc1cccc(C(F)(F)F)c1` (stereo not drawn) [Compound 5a, 17α-20E-21-(3-Trifluoromethylphenyl)-19-norpregna-1,3,5(10),20-tetraene-3,17β-diol], for which, in the assay with MCF-7 cells, the “effect … to estradiol” value is “antagonized the effects of estradiol at the same doses” and the “ability of the ligand” value is given as “weak proliferative effect at doses greater than 1 nM”. Besides, in the assay with immature female rat [1] (10 and 100 nM), the “estrogenic effect (uterotrophic growth)” value is “little or no estrogenic effects”. In addition, the “ability … by estradiol” value in the assay with immature female rat [2] (isomer at 10 and 100 nM) is on record as “no significant effect on the estradiol response”.
Turning to `CC12CCC3c4ccc(O)cc4CCC3C1CCC2(O)C=Cc1ccc(C(F)(F)F)cc1` (stereo not drawn) [Compound 6a, 17α-20E-21-(4-Trifluoromethylphenyl)-19-norpregna-1,3,5(10),20-tetraene-3,17β-diol], in the assay with MCF-7 cells, the “effect … to estradiol” value is “decreases in the estradiol effects were observed below 1 nM” and the “ability of the ligand” value is given as “did not elicit a proliferative response until a 10 nM dose was employed”. Also, the “estrogenic effect (uterotrophic growth)” value with immature female rat [1] (10 and 100 nM) is listed as “little or no estrogenic effects”. Further, the “ability … by estradiol” value with immature female rat [2] (isomer at 100 nM) was “reduced the estrogenic response”.
